The source made the active and inactive calls.
Legend:
[1] = Luminescence Cell-Based Dose Retest to Confirm Inhibitors of Cancer Stem Cells. [Related pubchem assays (depositor defined):AID2717, AID2721]; assay type: functional; conditions: Homo sapiens
Trypsin = Trypsin (Sus scrofa, UniProt P00761); assay: porcine trypsin inhibitors, dose response, selectivity assay for Rce1 protease inhibitor project, biochemical, quenched peptide fluorescence, cherry-pick (AID 488789)
CAAX prenyl protease 2 = molecular target: T1, CAAX prenyl protease 2 (Saccharomyces cerevisiae S288c, UniProt Q03530); assay type: biochemical
T1 sequence (Q03530 whole entry): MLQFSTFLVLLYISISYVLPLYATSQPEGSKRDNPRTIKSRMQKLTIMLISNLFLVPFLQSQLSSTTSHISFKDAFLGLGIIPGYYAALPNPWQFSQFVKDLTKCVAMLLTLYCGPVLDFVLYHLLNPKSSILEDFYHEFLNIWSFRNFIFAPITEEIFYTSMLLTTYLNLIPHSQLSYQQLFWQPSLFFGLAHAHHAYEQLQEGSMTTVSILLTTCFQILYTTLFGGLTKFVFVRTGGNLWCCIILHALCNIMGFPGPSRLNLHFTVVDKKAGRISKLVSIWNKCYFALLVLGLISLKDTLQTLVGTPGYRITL

[2] = molecular target: T2, Replicative DNA helicase DnaB (Mycobacterium tuberculosis, UniProt P9WMR3); assay: DnaB intein splicing inhibitors, dose response, biochemical, cell-free fluorescence (AID 449749); assay type: functional
T2 sequence (P9WMR3 whole entry): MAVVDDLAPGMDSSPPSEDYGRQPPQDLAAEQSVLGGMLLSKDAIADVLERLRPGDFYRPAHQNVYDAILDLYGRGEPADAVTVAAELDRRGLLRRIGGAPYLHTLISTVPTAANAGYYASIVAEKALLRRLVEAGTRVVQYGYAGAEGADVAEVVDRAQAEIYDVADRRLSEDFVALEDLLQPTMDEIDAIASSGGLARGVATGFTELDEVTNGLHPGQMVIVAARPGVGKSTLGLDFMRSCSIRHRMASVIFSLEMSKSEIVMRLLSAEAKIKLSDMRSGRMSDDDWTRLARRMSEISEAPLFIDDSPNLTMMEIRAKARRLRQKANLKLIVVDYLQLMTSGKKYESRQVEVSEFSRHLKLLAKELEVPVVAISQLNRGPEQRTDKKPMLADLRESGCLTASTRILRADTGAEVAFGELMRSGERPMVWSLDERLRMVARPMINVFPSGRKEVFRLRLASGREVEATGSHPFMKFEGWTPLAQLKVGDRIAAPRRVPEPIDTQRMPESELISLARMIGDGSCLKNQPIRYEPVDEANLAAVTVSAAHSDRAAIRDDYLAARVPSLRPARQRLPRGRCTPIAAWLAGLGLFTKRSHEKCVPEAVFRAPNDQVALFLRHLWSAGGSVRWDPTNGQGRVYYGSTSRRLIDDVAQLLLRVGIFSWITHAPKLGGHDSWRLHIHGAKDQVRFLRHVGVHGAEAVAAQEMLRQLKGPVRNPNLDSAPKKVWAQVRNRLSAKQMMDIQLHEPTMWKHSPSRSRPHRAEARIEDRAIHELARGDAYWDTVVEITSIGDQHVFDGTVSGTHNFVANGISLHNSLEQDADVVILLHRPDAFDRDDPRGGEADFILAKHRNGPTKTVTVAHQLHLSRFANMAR

Protein RecA = molecular target: T3, Protein RecA (Mycobacterium tuberculosis, UniProt P9WHJ3); assay: Fluorescence Cell-Free Homogeneous Dose Retest to Identify Inhibitors of RecA-Intein Splicing Activity. [Related pubchem assays (depositor defined):AID2097, AID2223, AID489010, AID492950]; assay type: functional
T3 sequence (P9WHJ3 whole entry): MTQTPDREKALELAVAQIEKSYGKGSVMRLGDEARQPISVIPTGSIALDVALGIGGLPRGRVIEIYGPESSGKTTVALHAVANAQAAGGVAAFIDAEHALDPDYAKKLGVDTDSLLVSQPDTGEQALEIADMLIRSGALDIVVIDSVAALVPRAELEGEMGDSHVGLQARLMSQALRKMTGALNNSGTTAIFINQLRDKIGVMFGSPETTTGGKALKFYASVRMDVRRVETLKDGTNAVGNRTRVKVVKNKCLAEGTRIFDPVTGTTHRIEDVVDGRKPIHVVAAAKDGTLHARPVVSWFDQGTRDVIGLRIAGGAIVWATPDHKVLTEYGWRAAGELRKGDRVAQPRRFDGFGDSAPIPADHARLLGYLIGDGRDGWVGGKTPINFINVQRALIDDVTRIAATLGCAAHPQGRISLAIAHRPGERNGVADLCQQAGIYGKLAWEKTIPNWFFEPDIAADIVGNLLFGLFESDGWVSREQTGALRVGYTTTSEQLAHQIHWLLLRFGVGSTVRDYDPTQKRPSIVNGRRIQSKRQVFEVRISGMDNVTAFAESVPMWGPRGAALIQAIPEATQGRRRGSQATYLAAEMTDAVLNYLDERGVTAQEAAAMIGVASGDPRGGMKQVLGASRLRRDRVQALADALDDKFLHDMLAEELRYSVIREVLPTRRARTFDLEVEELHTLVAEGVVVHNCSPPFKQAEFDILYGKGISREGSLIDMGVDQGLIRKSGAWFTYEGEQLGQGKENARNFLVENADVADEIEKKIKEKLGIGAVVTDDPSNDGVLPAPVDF

[3] = molecular target: Disintegrin and metalloproteinase domain-containing protein 17 (Homo sapiens, UniProt P78536); assay: exosite inhibitors of ADAM17, dose response, biochemical (AID 743260)
[4] = ADAM10 protease inhibitors, dose response, selectivity assay for ADAM17 exosite inhibitor project, biochemical, FRET peptide substrate, recombinant human ADAM10 (AID 743259);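 further: ADAM10 enzyme cleaving a FRET peptide substrate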
[5] = Luminescence Cell Based Dose Confirmation HTS to Identify Activators of 5'UTR Stem-Loop Driven Alpha-Synuclein mRNA Translation in H4 Neuroglioblastoma Cells. [Related pubchem assays (depositor defined):AID1813, AID1829]; assay type: functional; conditions: Homo sapiens
[6] = molecular target: T4, Small ubiquitin-related modifier 1 (Homo sapiens, UniProt P63165); assay: inhibitors of SUMO1 peptide binding, dose response, biochemical, fluorescence polarization, uHTS hits (AID 624382); assay type: functional; conditions: read-out: IC50_Mean
[7] = molecular target: T4, Small ubiquitin-related modifier 1; assay: inhibitors of SUMO1 partner interactions, dose response, biochemical, FRET (AID 624383); assay type: functional; conditions: read-out: IC50_Mean
Leucine aminopeptidase = molecular target: T5, Leucine aminopeptidase (Plasmodium falciparum 3D7, UniProt Q8IL11); assay: P. falciparum M17LAP inhibitors, primary screen, biochemical, fluorogenic H-Leu-NHMec substrate, 1536-well (AID 1619); assay type: functional
T5 sequence (Q8IL11 whole entry): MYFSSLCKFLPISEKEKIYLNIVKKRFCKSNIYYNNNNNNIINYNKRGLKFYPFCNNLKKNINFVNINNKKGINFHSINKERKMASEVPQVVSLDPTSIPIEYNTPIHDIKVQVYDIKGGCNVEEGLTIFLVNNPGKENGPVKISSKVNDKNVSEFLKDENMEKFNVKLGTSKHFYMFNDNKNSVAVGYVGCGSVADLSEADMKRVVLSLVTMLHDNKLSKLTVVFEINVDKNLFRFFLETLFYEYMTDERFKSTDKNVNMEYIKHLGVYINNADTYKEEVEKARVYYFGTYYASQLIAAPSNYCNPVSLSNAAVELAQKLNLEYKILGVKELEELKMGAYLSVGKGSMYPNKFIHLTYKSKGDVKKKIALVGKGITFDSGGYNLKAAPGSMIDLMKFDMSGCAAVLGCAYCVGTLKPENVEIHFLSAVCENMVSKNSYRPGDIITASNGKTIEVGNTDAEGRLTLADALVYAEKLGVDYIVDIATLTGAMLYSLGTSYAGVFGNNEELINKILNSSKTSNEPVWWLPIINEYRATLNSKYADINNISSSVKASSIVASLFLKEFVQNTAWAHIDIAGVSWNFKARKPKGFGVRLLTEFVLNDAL

[8] = molecular target: DNA dC->dU-editing enzyme APOBEC-3A (Homo sapiens, UniProt P31941); assay: APOBEC3A DNA deaminase inhibitors, dose response, biochemical (AID 504722); assay type: functional
[9] = molecular target: DNA dC->dU-editing enzyme APOBEC-3G (Homo sapiens, UniProt Q9HC16); assay: Dose Response confirmation of small molecule APOBEC3G DNA Deaminase Inhibitors via a fluorescence-based single-stranded DNA deaminase assay. [Related pubchem assays (depositor defined):AID493012, AID493028]; assay type: functional
[10] = inhibition of K1F phage lysis, E. coli UTI89, bacterial capsule biogenesis inhibitors, alamar blue (AID 488966); assay type: functional
Vero [11] = assay: cells; assay type: functional, cell-based; conditions: Chlorocebus sabaeus
Vero [12] = assay: cells; assay type: functional; conditions: Chlorocebus sabaeus
[13] = molecular target: T6, Kappa-type opioid receptor (Homo sapiens, UniProt P41145); assay: SAR analysis of Antagonists of the Kappa Opioid Receptor (KOR) using an Image-Based Assay - Set 2. [Related pubchem assays (depositor defined):AID1777, AID1785, AID1786, AID1966, AID2133, AID2136, AID2284, AID2285, AID2348]; assay type: functional
[14] = molecular target: T6, Kappa-type opioid receptor; assay: SAR analysis of small molecule agonists of the kappa opioid receptor via a luminescent beta-arrestin assay - Set 2. [Related pubchem assays (depositor defined):AID1777, AID1785, AID1786, AID1966, AID2133, AID2136, AID2284, AID449737]; assay type: functional
[15] = molecular target: Delta-type opioid receptor (Homo sapiens, UniProt P41143); assay: SAR Analysis of Antagonists of the DOR Receptor using an Image-Based Assay - Set 2. [Related pubchem assays (depositor defined):AID1777, AID1785, AID1786, AID1966, AID2133, AID2136, AID2284, AID2285, AID2357]; assay type: functional
[16] = molecular target: Glucose-6-phosphate 1-dehydrogenase (Homo sapiens, UniProt P11413); assay: human G6PD enzyme inhibitors, dose response, selectivity assay for P. falciparum G6PD inhibitor project, biochemical, fluorescence (AID 504792); assay type: functional
[17] = molecular target: Cystic fibrosis transmembrane conductance regulator/Golgi-associated PDZ and coiled-coil motif-containing protein (Homo sapiens, UniProt P13569+Q9HD26); assay: CAL PDZ peptide-binding inhibitors, dose response, biochemical, fluorescence polarization, Cerulean-tagged CAL PDZ, cherry-picks (AID 504773)
Nonstructural protein 1 = Nonstructural protein 1 (Influenza A virus, UniProt Q194T2); assay type: functional, Influenza A virus (A/California/07/2009(H1N1))
[18] = molecular target: Mitochondrial peptide methionine sulfoxide reductase (Bos taurus, UniProt P54149); assay: Absorbance-based biochemical high throughput dose response assay for activators of Methionine sulfoxide reductase A (MsrA).; assay type: functional
[19] = HeLa cell cytotoxicity, dose response, cytotoxicity control for MgcRacGAP inhibitor project (AID 624300); assay type: functional
[20] = molecular target: T7, Rac GTPase-activating protein 1 (Homo sapiens, UniProt Q9H0H5); assay: MgcRacGAP GTPase-activating activity inhibitors, confirmation, biochemical, ADP Hunter fluorescence, primary and confirmatory (AID 624330); assay type: functional
T7 sequence (Q9H0H5 whole entry): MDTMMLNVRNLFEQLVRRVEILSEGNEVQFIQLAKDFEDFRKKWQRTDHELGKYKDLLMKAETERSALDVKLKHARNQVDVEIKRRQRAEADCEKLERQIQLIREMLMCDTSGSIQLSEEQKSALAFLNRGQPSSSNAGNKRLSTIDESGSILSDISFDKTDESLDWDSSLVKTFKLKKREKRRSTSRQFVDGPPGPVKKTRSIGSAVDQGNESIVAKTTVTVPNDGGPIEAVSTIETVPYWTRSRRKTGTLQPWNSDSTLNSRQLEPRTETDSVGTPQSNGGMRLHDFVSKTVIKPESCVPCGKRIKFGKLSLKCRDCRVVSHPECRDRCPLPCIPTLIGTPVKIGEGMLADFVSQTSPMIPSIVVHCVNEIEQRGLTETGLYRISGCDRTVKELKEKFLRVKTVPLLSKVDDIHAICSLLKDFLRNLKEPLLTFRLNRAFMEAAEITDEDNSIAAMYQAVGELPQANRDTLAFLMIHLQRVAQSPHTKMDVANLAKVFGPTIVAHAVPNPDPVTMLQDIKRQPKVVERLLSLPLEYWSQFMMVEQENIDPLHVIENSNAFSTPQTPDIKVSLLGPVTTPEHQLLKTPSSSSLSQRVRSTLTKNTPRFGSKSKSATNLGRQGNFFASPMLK

[21] = molecular target: G-protein coupled receptor 55 (Homo sapiens, UniProt Q9Y2T6); assay: GPR55 agonists via beta-arrestin recruitment, primary screen, imaging, U2OS cells, beta-arrestin-GFP redistribution (AID 1961); assay type: functional
Sequence of G-protein coupled receptor 55 (Q9Y2T6 whole entry): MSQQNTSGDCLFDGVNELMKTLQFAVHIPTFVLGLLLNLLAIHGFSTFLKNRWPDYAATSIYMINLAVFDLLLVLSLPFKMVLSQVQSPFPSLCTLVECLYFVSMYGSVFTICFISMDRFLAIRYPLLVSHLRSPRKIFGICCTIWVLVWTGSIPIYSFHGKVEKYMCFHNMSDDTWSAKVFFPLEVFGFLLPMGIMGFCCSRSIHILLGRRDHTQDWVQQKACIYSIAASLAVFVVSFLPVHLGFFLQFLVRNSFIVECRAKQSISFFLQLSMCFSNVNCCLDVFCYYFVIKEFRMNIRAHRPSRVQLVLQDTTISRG

T6 sequence (P41145 whole entry): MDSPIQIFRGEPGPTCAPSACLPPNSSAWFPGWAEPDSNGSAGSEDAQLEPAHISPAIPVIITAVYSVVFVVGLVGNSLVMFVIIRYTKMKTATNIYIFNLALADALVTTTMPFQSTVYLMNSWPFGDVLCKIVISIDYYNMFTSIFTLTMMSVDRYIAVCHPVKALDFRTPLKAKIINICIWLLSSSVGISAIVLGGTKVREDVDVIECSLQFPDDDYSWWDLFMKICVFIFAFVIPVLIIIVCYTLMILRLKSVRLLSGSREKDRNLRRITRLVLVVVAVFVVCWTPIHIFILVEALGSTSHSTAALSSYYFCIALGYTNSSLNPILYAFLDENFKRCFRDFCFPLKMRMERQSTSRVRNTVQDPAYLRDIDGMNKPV
T4 sequence (P63165 whole entry): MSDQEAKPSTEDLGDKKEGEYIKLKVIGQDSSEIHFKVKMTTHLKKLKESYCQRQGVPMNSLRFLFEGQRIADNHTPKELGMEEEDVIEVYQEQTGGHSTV
Sequence of Cystic fibrosis transmembrane conductance regulator/Golgi-associated PDZ and coiled-coil motif-containing protein (P13569 whole entry, other chains not shown): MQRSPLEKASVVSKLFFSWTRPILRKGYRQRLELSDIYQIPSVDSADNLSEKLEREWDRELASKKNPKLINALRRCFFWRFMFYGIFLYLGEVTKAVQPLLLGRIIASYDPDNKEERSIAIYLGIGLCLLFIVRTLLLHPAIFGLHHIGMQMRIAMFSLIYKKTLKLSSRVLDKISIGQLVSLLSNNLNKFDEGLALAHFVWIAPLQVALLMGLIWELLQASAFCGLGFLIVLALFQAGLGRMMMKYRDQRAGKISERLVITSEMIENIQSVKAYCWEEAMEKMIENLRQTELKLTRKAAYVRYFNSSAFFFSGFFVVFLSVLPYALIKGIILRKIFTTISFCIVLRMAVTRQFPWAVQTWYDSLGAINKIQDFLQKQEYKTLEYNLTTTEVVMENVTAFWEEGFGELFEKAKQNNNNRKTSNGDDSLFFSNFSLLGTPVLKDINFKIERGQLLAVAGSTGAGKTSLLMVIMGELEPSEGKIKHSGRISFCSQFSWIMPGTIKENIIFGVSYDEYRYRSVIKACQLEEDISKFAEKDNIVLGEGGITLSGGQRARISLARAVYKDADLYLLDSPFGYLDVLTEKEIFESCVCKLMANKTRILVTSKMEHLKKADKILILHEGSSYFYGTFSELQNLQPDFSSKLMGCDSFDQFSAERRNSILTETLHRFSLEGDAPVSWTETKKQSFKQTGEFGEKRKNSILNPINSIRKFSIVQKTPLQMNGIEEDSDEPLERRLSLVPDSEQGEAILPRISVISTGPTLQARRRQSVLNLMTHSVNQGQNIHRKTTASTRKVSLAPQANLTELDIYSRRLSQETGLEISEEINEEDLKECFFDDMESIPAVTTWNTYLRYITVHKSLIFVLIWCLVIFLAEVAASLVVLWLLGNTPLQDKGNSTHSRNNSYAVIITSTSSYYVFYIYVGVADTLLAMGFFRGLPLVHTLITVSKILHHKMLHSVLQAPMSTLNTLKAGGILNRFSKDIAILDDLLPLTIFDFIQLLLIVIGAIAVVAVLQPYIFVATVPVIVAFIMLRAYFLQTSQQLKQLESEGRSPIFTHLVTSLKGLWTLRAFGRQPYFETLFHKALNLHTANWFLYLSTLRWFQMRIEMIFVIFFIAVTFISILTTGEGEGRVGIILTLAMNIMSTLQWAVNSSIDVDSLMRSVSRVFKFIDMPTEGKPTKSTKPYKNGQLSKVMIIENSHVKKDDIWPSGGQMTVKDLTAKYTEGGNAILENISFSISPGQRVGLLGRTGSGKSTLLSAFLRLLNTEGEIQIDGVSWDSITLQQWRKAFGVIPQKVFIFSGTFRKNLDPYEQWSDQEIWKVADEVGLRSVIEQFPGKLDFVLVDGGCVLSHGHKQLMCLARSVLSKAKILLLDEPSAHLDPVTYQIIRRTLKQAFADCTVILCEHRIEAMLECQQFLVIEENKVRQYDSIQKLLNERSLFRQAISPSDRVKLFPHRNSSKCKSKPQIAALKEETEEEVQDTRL
Sequence of Glucose-6-phosphate 1-dehydrogenase (P11413 whole entry): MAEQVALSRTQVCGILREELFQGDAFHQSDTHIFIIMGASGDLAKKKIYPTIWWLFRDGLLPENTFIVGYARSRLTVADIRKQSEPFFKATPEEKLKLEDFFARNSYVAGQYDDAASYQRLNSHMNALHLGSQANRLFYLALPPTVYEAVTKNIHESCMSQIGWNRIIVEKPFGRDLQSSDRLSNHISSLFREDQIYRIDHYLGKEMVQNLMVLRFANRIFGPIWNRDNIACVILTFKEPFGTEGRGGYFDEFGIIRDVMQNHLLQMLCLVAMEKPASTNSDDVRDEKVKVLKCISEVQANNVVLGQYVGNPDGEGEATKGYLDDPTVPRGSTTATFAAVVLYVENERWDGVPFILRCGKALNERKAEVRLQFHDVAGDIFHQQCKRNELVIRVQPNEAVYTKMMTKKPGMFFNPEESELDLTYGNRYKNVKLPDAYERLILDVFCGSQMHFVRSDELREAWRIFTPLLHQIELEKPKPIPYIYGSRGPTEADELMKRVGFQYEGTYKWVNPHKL
Sequence of DNA dC->dU-editing enzyme APOBEC-3A (P31941 whole entry): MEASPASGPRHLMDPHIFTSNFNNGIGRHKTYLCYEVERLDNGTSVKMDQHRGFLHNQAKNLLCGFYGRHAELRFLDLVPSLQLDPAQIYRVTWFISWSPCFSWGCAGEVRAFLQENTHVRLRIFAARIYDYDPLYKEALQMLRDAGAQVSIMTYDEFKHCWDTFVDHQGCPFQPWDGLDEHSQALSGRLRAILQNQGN
Sequence of DNA dC->dU-editing enzyme APOBEC-3G (Q9HC16 whole entry): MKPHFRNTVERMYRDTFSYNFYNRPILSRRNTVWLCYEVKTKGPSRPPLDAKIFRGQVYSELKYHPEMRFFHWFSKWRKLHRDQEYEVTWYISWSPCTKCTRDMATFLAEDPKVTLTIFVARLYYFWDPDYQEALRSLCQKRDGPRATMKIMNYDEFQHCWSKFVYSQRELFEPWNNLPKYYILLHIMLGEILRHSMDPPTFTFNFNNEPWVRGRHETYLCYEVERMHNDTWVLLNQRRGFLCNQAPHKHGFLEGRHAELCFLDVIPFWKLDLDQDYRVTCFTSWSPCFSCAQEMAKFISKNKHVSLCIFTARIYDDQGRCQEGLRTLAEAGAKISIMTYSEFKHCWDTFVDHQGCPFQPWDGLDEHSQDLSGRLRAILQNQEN
Sequence of Delta-type opioid receptor (P41143 whole entry): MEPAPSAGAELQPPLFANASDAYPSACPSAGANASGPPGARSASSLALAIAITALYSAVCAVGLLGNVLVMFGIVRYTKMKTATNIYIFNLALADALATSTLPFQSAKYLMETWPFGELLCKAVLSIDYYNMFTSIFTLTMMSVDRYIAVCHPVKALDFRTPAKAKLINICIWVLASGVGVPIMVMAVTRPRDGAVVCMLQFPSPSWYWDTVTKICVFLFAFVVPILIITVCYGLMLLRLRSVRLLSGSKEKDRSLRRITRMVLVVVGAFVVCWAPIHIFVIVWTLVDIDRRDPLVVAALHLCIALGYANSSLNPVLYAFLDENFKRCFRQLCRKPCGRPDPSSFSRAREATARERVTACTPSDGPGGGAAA
Sequence of Disintegrin and metalloproteinase domain-containing protein 17 (P78536 whole entry, the tested form may be a part): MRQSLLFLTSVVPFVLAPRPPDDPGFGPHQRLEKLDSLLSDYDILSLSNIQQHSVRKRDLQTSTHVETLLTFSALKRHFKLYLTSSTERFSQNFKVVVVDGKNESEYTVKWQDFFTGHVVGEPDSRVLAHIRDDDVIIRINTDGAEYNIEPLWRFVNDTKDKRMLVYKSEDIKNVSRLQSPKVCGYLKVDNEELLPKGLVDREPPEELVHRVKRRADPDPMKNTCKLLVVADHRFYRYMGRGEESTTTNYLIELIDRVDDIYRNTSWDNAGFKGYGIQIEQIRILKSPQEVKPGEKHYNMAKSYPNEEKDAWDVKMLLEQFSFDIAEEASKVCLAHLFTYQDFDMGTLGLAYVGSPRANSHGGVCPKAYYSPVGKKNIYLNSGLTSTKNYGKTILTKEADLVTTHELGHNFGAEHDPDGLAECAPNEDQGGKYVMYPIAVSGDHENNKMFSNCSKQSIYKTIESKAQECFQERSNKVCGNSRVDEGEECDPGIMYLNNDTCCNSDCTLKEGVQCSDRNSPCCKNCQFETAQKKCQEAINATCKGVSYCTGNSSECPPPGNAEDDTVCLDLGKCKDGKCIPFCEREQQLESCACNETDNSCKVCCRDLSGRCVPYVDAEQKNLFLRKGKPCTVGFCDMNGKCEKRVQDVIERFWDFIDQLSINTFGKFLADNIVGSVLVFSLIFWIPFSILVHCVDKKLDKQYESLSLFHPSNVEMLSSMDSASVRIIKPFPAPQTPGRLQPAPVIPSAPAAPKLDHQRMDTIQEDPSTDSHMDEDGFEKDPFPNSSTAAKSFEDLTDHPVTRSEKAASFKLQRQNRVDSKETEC
Sequence of Trypsin (P00761 whole entry): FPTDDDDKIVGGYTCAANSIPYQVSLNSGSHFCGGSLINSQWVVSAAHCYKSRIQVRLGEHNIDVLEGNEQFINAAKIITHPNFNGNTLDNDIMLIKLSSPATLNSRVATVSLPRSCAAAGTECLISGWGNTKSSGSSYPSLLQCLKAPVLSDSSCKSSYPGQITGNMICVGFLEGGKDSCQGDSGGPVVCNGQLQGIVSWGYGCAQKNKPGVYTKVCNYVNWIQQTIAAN

## N=c1c2c(ncn1Cc1ccco1)Oc1ccc3ccccc3c1C2c1ccccc1 (stereo unspecified)
[1]
  AC50: 2.09 µM (active)
Trypsin
  AC50: 7.73 µM (active)
CAAX prenyl protease 2
  AC50: 27.2 µM (active)
[2]
  AC50: 7.51 µM (active)
Protein RecA
  EC50: 16.7 µM (active)
[3]
  IC50: > 69.5 µM (inactive)
[4]
  IC50: > 7.72 µM (active)

## Fc1ccc(Nc2nnc(-c3ccncc3)s2)cc1Cl
[5]
  EC50: 12 µM (active)
[6]
  IC50: > 66.6 µM (inactive)
[7]
  IC50: 100 µM (inactive)

## Sc1n[nH]c(C2CCCCC2)n1
Leucine aminopeptidase
  IC50: 13.8 µM (active)
[8]
  IC50: > 100 µM (inactive)
[9]
  IC50: 8.98 µM (active)

## NCC1CCN(c2nc3ccccc3c3c2CCCC3)CC1
[10]
  IC50: > 150 µM (active)
Vero [11]
  IC50: > 25 µM (active)
Vero [12]
  CC50: 19.2 µM (active)

## CC[C@@](C)(C(=O)NC1CCCCC1)N(Cc1ccco1)C(=O)c1ccccn1
[13]
  IC50: > 32 µM (inactive)
[14]
  EC50: 0.128 µM (active)
[15]
  IC50: > 32 µM (inactive)

## CN(C)c1ccc(C=c2c3cc(O)ccc3n3c2cc(-c2ccccc2)[n+]3C)cc1
[16]
  IC50: > 80 µM (inactive)
[17]
  AC50: 44.6 µM (active)
Nonstructural protein 1
  IC50: 3.76 µM (active)
[18]
  EC50: > 104 µM (inactive)
[19]
  CC50: 50.7 µM (active)
[20]
  IC50: 20.1 µM (active)

## CCN(CC)c1ccc(/C=N/OCC(=O)Nc2cccc(C)c2)cc1
[21]
  EC50: > 32 µM (inactive)
